# Laboratory results: PubChem BioAssay (NCI)
#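 Compound exposure: 48 hours, 5 concentrations, 96-well plates. At the GI50, growth is halved. TGI: concentration producing complete growth inhibition.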
# How the values were obtained:
# Assay in all cases: NCI anticancer screen, dose series, 48 h
# 786-0 renal = tested on: 786-0 renal
# A498 renal = tested on: A498 renal
# A549 NSCLC = tested on: A549 NSCLC
# ACHN renal = tested on: ACHN renal
# BT-549 breast = tested on: BT-549 breast
# CAKI-1 renal = tested on: CAKI-1 renal
# CCRF-CEM leukemia = tested on: CCRF-CEM leukemia
# COLO 205 colon = tested on: COLO 205 colon
# DU-145 prostate = tested on: DU-145 prostate
# EKVX NSCLC = tested on: EKVX NSCLC
# HCC-2998 colon = tested on: HCC-2998 colon
# HCT-116 colon = tested on: HCT-116 colon
# HCT-15 colon = tested on: HCT-15 colon
# HL-60(TB) leukemia = tested on: HL-60(TB) leukemia
# HOP-62 NSCLC = tested on: HOP-62 NSCLC
# HOP-92 NSCLC = tested on: HOP-92 NSCLC
# HS 578T breast = tested on: HS 578T breast
# HT29 colon = tested on: HT29 colon
# IGROV1 ovarian = tested on: IGROV1 ovarian
# K-562 leukemia = tested on: K-562 leukemia
# KM12 colon = tested on: KM12 colon
# LOX IMVI melanoma = tested on: LOX IMVI melanoma
# M14 melanoma = tested on: M14 melanoma
# MALME-3M melanoma = tested on: MALME-3M melanoma
# MCF7 breast = tested on: MCF7 breast
# MDA-MB-231 breast = tested on: MDA-MB-231 breast
# MDA-MB-435 = tested on: MDA-MB-435
# MOLT-4 leukemia = tested on: MOLT-4 leukemia
# NCI-H226 lung = tested on: NCI-H226 lung
# NCI-H23 lung = tested on: NCI-H23 lung
# NCI-H460 lung = tested on: NCI-H460 lung
# NCI-H522 lung = tested on: NCI-H522 lung
# NCI/ADR-RES ovarian = tested on: NCI/ADR-RES ovarian
# OVCAR-3 ovarian = tested on: OVCAR-3 ovarian
# OVCAR-4 ovarian = tested on: OVCAR-4 ovarian
# OVCAR-5 ovarian = tested on: OVCAR-5 ovarian
# OVCAR-8 ovarian = tested on: OVCAR-8 ovarian
# PC-3 prostate = tested on: PC-3 prostate
# RPMI-8226 leukemia = tested on: RPMI-8226 leukemia
# RXF 393 renal = tested on: RXF 393 renal
# SF-268 CNS = tested on: SF-268 CNS
# SF-295 CNS = tested on: SF-295 CNS
# SF-539 CNS = tested on: SF-539 CNS
# SK-MEL-2 melanoma = tested on: SK-MEL-2 melanoma
# SK-MEL-28 melanoma = tested on: SK-MEL-28 melanoma
# SK-MEL-5 melanoma = tested on: SK-MEL-5 melanoma
# SK-OV-3 ovarian = tested on: SK-OV-3 ovarian
# SN12C renal = tested on: SN12C renal
# SNB-19 CNS = tested on: SNB-19 CNS
# SNB-75 CNS = tested on: SNB-75 CNS
# SW-620 colon = tested on: SW-620 colon
# T-47D breast = tested on: T-47D breast
# TK-10 renal = tested on: TK-10 renal
# U251 CNS = tested on: U251 CNS
# UACC-257 melanoma = tested on: UACC-257 melanoma
# UACC-62 melanoma = tested on: UACC-62 melanoma
# UO-31 renal = tested on: UO-31 renal
# SR leukemia = tested on: SR leukemia
structure (smiles),measurement,setting,value
OCCN1CCN(CCCN2c3ccccc3Sc3ccc(Cl)cc32)CC1,GI50,786-0 renal,1.87 µM
same,TGI,786-0 renal,3.98 µM
same,GI50,A498 renal,1.56 µM
same,TGI,A498 renal,5.87 µM
same,GI50,A549 NSCLC,3.68 µM
same,TGI,A549 NSCLC,15.2 µM
same,GI50,ACHN renal,3.8 µM
same,TGI,ACHN renal,13.6 µM
same,GI50,BT-549 breast,4.49 µM
same,TGI,BT-549 breast,16.6 µM
same,GI50,CAKI-1 renal,1.71 µM
same,TGI,CAKI-1 renal,4.52 µM
same,GI50,CCRF-CEM leukemia,2.2 µM
same,TGI,CCRF-CEM leukemia,6.24 µM
same,GI50,COLO 205 colon,1.61 µM
same,TGI,COLO 205 colon,3 µM
same,GI50,DU-145 prostate,5.04 µM
same,TGI,DU-145 prostate,16.2 µM
same,GI50,EKVX NSCLC,3.43 µM
same,TGI,EKVX NSCLC,17.7 µM
same,GI50,HCC-2998 colon,1.5 µM
same,TGI,HCC-2998 colon,2.98 µM
same,GI50,HCT-116 colon,1.76 µM
same,TGI,HCT-116 colon,3.55 µM
same,GI50,HCT-15 colon,2.39 µM
same,TGI,HCT-15 colon,6.13 µM
same,GI50,HL-60(TB) leukemia,2.06 µM
same,TGI,HL-60(TB) leukemia,4.16 µM
same,GI50,HOP-62 NSCLC,3.02 µM
same,TGI,HOP-62 NSCLC,12.7 µM
same,GI50,HOP-92 NSCLC,1.37 µM
same,TGI,HOP-92 NSCLC,6.72 µM
same,GI50,HS 578T breast,1.98 µM
same,TGI,HS 578T breast,5.71 µM
same,GI50,HT29 colon,1.73 µM
same,TGI,HT29 colon,3.42 µM
same,GI50,IGROV1 ovarian,3.12 µM
same,TGI,IGROV1 ovarian,12.2 µM
same,GI50,K-562 leukemia,2.1 µM
same,TGI,K-562 leukemia,4.45 µM
same,GI50,KM12 colon,1.91 µM
same,TGI,KM12 colon,3.69 µM
same,GI50,LOX IMVI melanoma,1.59 µM
same,TGI,LOX IMVI melanoma,3.09 µM
same,GI50,M14 melanoma,1.88 µM
same,TGI,M14 melanoma,3.6 µM
same,GI50,MALME-3M melanoma,1.79 µM
same,TGI,MALME-3M melanoma,3.59 µM
same,GI50,MCF7 breast,2.02 µM
same,TGI,MCF7 breast,3.96 µM
same,GI50,MDA-MB-231 breast,1.99 µM
same,TGI,MDA-MB-231 breast,4.78 µM
same,GI50,MDA-MB-435,1.72 µM
same,TGI,MDA-MB-435,3.33 µM
same,GI50,MOLT-4 leukemia,2.4 µM
same,TGI,MOLT-4 leukemia,5.79 µM
same,GI50,NCI-H226 lung,5.26 µM
same,TGI,NCI-H226 lung,19.2 µM
same,GI50,NCI-H23 lung,3.83 µM
same,TGI,NCI-H23 lung,18 µM
same,GI50,NCI-H460 lung,1.98 µM
same,TGI,NCI-H460 lung,4.22 µM
same,GI50,NCI-H522 lung,1.5 µM
same,TGI,NCI-H522 lung,3.13 µM
same,GI50,NCI/ADR-RES ovarian,2.72 µM
same,TGI,NCI/ADR-RES ovarian,9.91 µM
same,GI50,OVCAR-3 ovarian,2.59 µM
same,TGI,OVCAR-3 ovarian,6.73 µM
same,GI50,OVCAR-4 ovarian,4.49 µM
same,TGI,OVCAR-4 ovarian,17.4 µM
same,GI50,OVCAR-5 ovarian,3.12 µM
same,TGI,OVCAR-5 ovarian,12.1 µM
same,GI50,OVCAR-8 ovarian,2.02 µM
same,TGI,OVCAR-8 ovarian,4.7 µM
same,GI50,PC-3 prostate,2.64 µM
same,TGI,PC-3 prostate,12 µM
same,GI50,RPMI-8226 leukemia,2.29 µM
same,TGI,RPMI-8226 leukemia,6.7 µM
same,GI50,RXF 393 renal,1.96 µM
same,TGI,RXF 393 renal,7.68 µM
same,GI50,SF-268 CNS,2.79 µM
same,TGI,SF-268 CNS,10.7 µM
same,GI50,SF-295 CNS,1.75 µM
same,TGI,SF-295 CNS,3.65 µM
same,GI50,SF-539 CNS,1.82 µM
same,TGI,SF-539 CNS,3.94 µM
same,GI50,SK-MEL-2 melanoma,2.03 µM
same,TGI,SK-MEL-2 melanoma,4.04 µM
same,GI50,SK-MEL-28 melanoma,1.84 µM
same,TGI,SK-MEL-28 melanoma,3.31 µM
same,GI50,SK-MEL-5 melanoma,1.65 µM
same,TGI,SK-MEL-5 melanoma,3 µM
same,GI50,SK-OV-3 ovarian,3.04 µM
same,TGI,SK-OV-3 ovarian,10.2 µM
same,GI50,SN12C renal,3.42 µM
same,TGI,SN12C renal,14.2 µM
same,GI50,SNB-19 CNS,2.3 µM
same,TGI,SNB-19 CNS,5.7 µM
same,GI50,SNB-75 CNS,3.97 µM
same,TGI,SNB-75 CNS,15.6 µM
same,GI50,SW-620 colon,1.77 µM
same,TGI,SW-620 colon,3.52 µM
same,GI50,T-47D breast,1.91 µM
same,TGI,T-47D breast,5.56 µM
same,GI50,TK-10 renal,1.65 µM
same,TGI,TK-10 renal,3.08 µM
same,GI50,U251 CNS,1.9 µM
same,TGI,U251 CNS,4.33 µM
same,GI50,UACC-257 melanoma,1.66 µM
same,TGI,UACC-257 melanoma,3.36 µM
same,GI50,UACC-62 melanoma,1.76 µM
same,TGI,UACC-62 melanoma,3.29 µM
same,GI50,UO-31 renal,4.38 µM
same,TGI,UO-31 renal,18.3 µM
CC1(C)O[C@@H]([C@H](O)CO)[C@H](O)[C@@H](C2SCCCS2)O1,TGI,786-0 renal,> 100 µM
same,TGI,A498 renal,> 100 µM
same,TGI,A549 NSCLC,> 100 µM
same,TGI,ACHN renal,> 100 µM
same,TGI,BT-549 breast,> 100 µM
same,TGI,CAKI-1 renal,> 100 µM
same,TGI,COLO 205 colon,> 100 µM
same,TGI,DU-145 prostate,> 100 µM
same,TGI,EKVX NSCLC,> 100 µM
same,TGI,HCC-2998 colon,> 100 µM
same,TGI,HCT-116 colon,> 100 µM
same,TGI,HCT-15 colon,> 100 µM
same,TGI,HOP-62 NSCLC,> 100 µM
same,TGI,HOP-92 NSCLC,> 100 µM
same,TGI,HT29 colon,> 100 µM
same,TGI,IGROV1 ovarian,> 100 µM
same,TGI,KM12 colon,> 100 µM
same,TGI,M14 melanoma,> 100 µM
same,TGI,MCF7 breast,> 100 µM
same,TGI,MDA-MB-231 breast,> 100 µM
same,TGI,MDA-MB-435,> 100 µM
same,TGI,NCI-H226 lung,> 100 µM
same,TGI,NCI-H23 lung,> 100 µM
same,TGI,NCI-H460 lung,> 100 µM
same,TGI,NCI/ADR-RES ovarian,> 100 µM
same,TGI,OVCAR-3 ovarian,> 100 µM
same,TGI,OVCAR-4 ovarian,> 100 µM
same,TGI,OVCAR-5 ovarian,> 100 µM
same,TGI,OVCAR-8 ovarian,> 100 µM
same,TGI,PC-3 prostate,> 100 µM
same,TGI,RPMI-8226 leukemia,> 100 µM
same,TGI,RXF 393 renal,> 100 µM
same,TGI,SF-268 CNS,> 100 µM
same,TGI,SF-295 CNS,> 100 µM
same,TGI,SF-539 CNS,> 100 µM
same,TGI,SK-MEL-2 melanoma,> 100 µM
same,TGI,SK-MEL-28 melanoma,> 100 µM
same,TGI,SK-MEL-5 melanoma,> 100 µM
same,TGI,SK-OV-3 ovarian,> 100 µM
same,TGI,SN12C renal,> 100 µM
same,TGI,SNB-19 CNS,> 100 µM
same,TGI,SNB-75 CNS,> 100 µM
same,TGI,SR leukemia,> 100 µM
same,TGI,SW-620 colon,> 100 µM
same,TGI,T-47D breast,> 100 µM
same,TGI,TK-10 renal,> 100 µM
same,TGI,U251 CNS,> 100 µM
same,TGI,UACC-257 melanoma,> 100 µM
same,TGI,UACC-62 melanoma,> 100 µM
same,TGI,UO-31 renal,> 100 µM
